Measured values reported in patent publication US20220380347A1, “INHIBITORS OF CYSTEINE PROTEASES AND METHODS OF USE THEREOF” (Pardes Biosciences, Inc., priority 2020, published 2022).
Values joined by “and” are separate entries in the source; they are usually repeats but may differ in a detail not shown here. Equal values may be shown once. Read-outs that look alike come from different tables or passages of the source.

Assays:
229E Mpro = 229E Mpro (Human coronavirus 229E, UniProt P0C6X1); assay: 229E Mpro enzymatic assay (standard methods, SARS-CoV2 Mpro assay given as exemplary); type: biochemical, human coronavirus (HCov) 229E
Method in brief: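 IC50 for 229E Mpro by standard methods; exemplary SARS-CoV-2 protocol used C-His6-tagged Mpro from E. coli, 25 nM enzyme, 25 μM substrate (Km 13.5 μM), in Tris-HCl pH 7.3, NaCl, EDTA, TCEP, 0.1% BSA. Inhibition normalised to no-compound and full-effect controls; four-parameter fit.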

[1] = biological target: COVID-19 (nCoV-2019, SARS-CoV2) Mpro (Severe acute respiratory syndrome coronavirus 2, UniProt P0DTD1); assay: COVID-19 (nCoV-2019, SARS-CoV2) Mpro enzymatic assay; type: biochemical; settings: 25 nM Mpro, 25 μM substrate; read-out: COVID-19 Mpro IC50
HCov OC43 = assay: HCoV OC43 cytopathic effect (CPE) assay, CellTiter Glo; type: cell-based, human coronavirus (HCov) OC43
[2] = read-out: OC43 IC50 (uM) MEDIAN, median
[3] = Betacoronavirus 1, OC43, read-out: OC43 IC50 (uM) MEDIAN, median

229E Mpro, sequence (P0C6X1 2966-3267): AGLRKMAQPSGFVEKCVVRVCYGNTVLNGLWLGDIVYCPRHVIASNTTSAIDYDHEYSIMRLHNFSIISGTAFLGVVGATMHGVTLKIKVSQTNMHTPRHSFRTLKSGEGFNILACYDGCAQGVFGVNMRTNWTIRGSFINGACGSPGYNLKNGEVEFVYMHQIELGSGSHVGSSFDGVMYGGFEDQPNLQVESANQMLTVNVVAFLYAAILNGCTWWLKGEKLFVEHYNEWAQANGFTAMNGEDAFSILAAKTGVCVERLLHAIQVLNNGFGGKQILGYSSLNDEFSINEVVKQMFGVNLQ

| SMILES | EC50 (229E Mpro; 229E Mpro EC50) | IC50 [1] | IC50 (HCov OC43; [2]) | IC50 (HCov OC43; [3]) | EC50 (229E Mpro; read-out: 229E Mpro EC50) | IC50 (HCov OC43; read-out: OC43 IC50 (uM) MEDIAN, median, listed as 427 Isomer 1) | IC50 (HCov OC43; read-out: OC43 IC50 (uM) MEDIAN, median, listed as 374 Isomer 2) |
| --- | --- | --- | --- | --- | --- | --- | --- |
| CO[C@@H]1C[C@H](C(=O)N(c2ccc(C(C)(C)C)cc2F)C(C(=O)NC2CCC(F)(F)CC2)c2cncc(F)c2)N(C#N)C1 (single isomer, unassigned) [1207 Isomer 1] | 10 to 30 µM | 2 to 10 µM | 10 to 30 µM |  |  |  |  |
| CO[C@@H]1C[C@H](C(=O)N(c2ccc(S(F)(F)(F)(F)F)cc2)C(C(=O)NCCc2cc(F)cc(F)c2)c2cccnc2)N(C#N)C1 (single isomer, unassigned) [1196 Isomer 1] | < 2 µM | 2 to 10 µM |  | 2 to 10 µM |  |  |  |
| CC(C)(C)c1ccc(N(C(=O)[C@H]2C[C@@H](O)CN2C#N)C(C(=O)NC2CCCC2)c2cccnc2)cc1 (single isomer, unassigned) [595 Isomer 2] |  | < 2 µM | < 2 µM |  | < 2 µM |  |  |
| CC(C(=O)NC1CCC(F)(F)CC1)(c1cccnc1)N(C(=O)[C@H]1C[C@@](C)(O)CN1C#N)c1ccc(S(F)(F)(F)(F)F)cc1 (stereo partly drawn) [Compound 1077, (2R,4R)-1-cyano-N-[2-[(4,4-difluorocyclohexyl)amino]-1-methyl-2-oxo-1-(3-pyridyl)ethyl]-4-hydroxy-4-methyl-N-[4-(pentafluoro-λ^6-sulfanyl)phenyl]pyrrolidine-2-carboxamide] | < 2 µM | < 2 µM |  | < 2 µM |  |  |  |
| C[C@H](NC(=O)C(c1cncc(F)c1)N(C(=O)[C@H]1C[C@@](C)(O)CN1C#N)c1ccc(S(F)(F)(F)(F)F)cc1)c1ccccc1 (single isomer, unassigned) [1328 Isomer 1] | < 2 µM | < 2 µM |  | < 2 µM |  |  |  |
| CS(=O)(=O)[C@H]1C[C@H](C(=O)N(c2ccc(S(F)(F)(F)(F)F)cc2)C(C(=O)NC2CCC(F)(F)CC2)c2cncc(F)c2)N(C#N)C1 (single isomer, unassigned) [1105 Isomer 2] |  | < 2 µM | < 2 µM |  | < 2 µM |  |  |
| N#CN1C[C@H](O)C[C@@H]1C(=O)N(c1ccc(S(F)(F)(F)(F)F)cc1F)C(C(=O)NC1CCC(F)(F)CC1)c1cccnc1 (single isomer, unassigned) [1288a Isomer 2] |  | 2 to 10 µM | 2 to 10 µM |  | < 2 µM |  |  |
| CO[C@@H]1C[C@H](C(=O)N(c2ccc(S(F)(F)(F)(F)F)cc2)C(C(=O)N2CC3(COC3)C2)c2cccnc2)N(C#N)C1 (single isomer, unassigned) [1171 Isomer 1] | < 2 µM | 10 to 30 µM and < 2 µM | < 2 µM | 2 to 10 µM |  |  |  |
| COC(C)(C)CNC(=O)C(c1cccnc1)N(C(=O)[C@H]1CCCN1C#N)c1ccc(C(C)(C)C)cc1 (single isomer, unassigned) [Compound 427 Isomer 1] | 2 to 10 µM | 10 to 30 µM |  |  |  | > 30 µM |  |
| CO[C@@H]1C[C@H](C(=O)N(c2ccc(S(F)(F)(F)(F)F)cc2F)C(C(=O)NC2CCC(F)(F)CC2)c2cccnc2)N(C#N)C1 (single isomer, unassigned) [1288 Isomer 2] |  | < 2 µM | 2 to 10 µM |  | < 2 µM |  |  |
| C[C@@]1(O)C[C@H](C(=O)N(c2ccc(-c3ccccc3)cc2)C(C(=O)NC2CCC(F)(F)CC2)c2cncc(F)c2)N(C#N)C1 (single isomer, unassigned) [1330 Isomer 2] | 2 to 10 µM | 2 to 10 µM | 10 to 30 µM |  |  |  |  |
| CO[C@@H]1C[C@H](C(=O)N(c2ccc(S(F)(F)(F)(F)F)cc2)C(C(=O)N(C)CC(=O)NC2CC2)c2cccnc2)N(C#N)C1 (single isomer, unassigned) [Compound 1122] | < 2 µM | < 2 µM |  | < 2 µM |  |  |  |
| CC(C)(C)c1ccc(N(C(=O)[C@H]2CCCN2C#N)C(C(=O)N2CCC(N)CC2)c2cccnc2)cc1 (stereo partly shown) [Compound 966] | > 30 µM | > 30 µM |  | > 30 µM |  |  |  |
| CC(C)(C)c1ccc(N(C(=O)[C@H]2Cc3ccccc3CN2C#N)C(C(=O)NC2CCCCC2)c2cccnc2)cc1 (single isomer, unassigned) [Compound 374 Isomer 2] | < 2 µM | < 2 µM |  |  |  |  | 2 to 10 µM |
